Each compound was assayed against T1, P2X3 (UniProt P56373) (assay: P2X3 FLIPR intracellular calcium assay). Conditions: agonist at EC75, species (human or rat) not given.
T1 sequence (P56373 1-397): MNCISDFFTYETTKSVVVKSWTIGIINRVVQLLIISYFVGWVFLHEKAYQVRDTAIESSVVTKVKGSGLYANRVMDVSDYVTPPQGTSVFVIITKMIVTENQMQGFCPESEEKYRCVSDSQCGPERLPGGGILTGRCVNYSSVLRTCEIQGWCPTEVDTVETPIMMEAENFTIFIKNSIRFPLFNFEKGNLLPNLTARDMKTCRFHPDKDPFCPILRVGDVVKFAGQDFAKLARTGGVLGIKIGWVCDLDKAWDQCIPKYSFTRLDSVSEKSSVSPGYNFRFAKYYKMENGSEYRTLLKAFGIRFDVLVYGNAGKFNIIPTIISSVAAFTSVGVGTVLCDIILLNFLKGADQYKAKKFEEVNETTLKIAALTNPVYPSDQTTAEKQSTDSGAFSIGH
Type: cell-based
Procedure, shortened: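 Human P2X3-HEK, human P2X2/3-TRex293, rat P2X2/3-TRex293 or rat P2X3 TRex-CHO cells loaded with Calcium 4 dye (1.8 mM probenecid, pH 7.4).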

SMILES | IC50
CCc1cnnn1-c1cc(C(=O)NCc2ccc(C)nc2)cn2c(-c3ccc(C)s3)cnc12 [Example 22] | 1 to 100 nM
C[C@H](NC(=O)c1cc(-n2nncc2C(F)F)c2ncc(-c3ccc(Cl)s3)n2c1)c1nnc[nH]1 [Example 38] | 1 to 100 nM
CC[C@H](NC(=O)c1cc(-n2nncc2C(F)F)c2ncc(-c3ccc(C)s3)n2c1)c1nnc[nH]1 [Example 52] | 1 to 100 nM
